The values below come from patent US11266654B2 (AI Therapeutics, Inc., priority 2014, dated 2022).

One series deals with Normal lung fibroblasts. Put plainly: Cytotoxicity on normal cells. The format is cell-based. Particulars: concentrations as high as 10 micromolar. The source says: (§1) 35 cell lines were identified as sensitive to apilimod-induced cytotoxicity.
The test system of another series is THP-1. Particulars: THP-1 (WO 2006/128129); cited from earlier work.
The subject of a further series is SUDHL-4 cells. Put plainly: Screen of 93-drug library with and without apilimod (CellTiter-Glo 72 h). The format is cell-based. As to conditions: Homo sapiens, SU-DHL-4. The source says: A manually curated library of 93 drugs including both FDA approved and unapproved drugs was used in the screen.
A general note: Cellular ATP, detected with luciferase, serves as a proxy for viable cell number.

The test system of another series is IL-12/IL-23 synthesis. Particulars: psoriasis, oral administration, open label (Wada et al. 2012); cited from earlier work.
The test system of the next series is Jurkat. Particulars: Jurkat (WO 2006/128129); cited from earlier work.
For series [1], the system named is peripheral blood mononuclear cells. As to conditions: peripheral blood mononuclear cells (Wada et al. 2007); cited from earlier work.
In series [2] the test system is 122 human cancer cell lines. Put plainly: Cancer cell line sensitivity screen (cell viability). The format is cell-based. Particulars: non-Hodgkin's Lymphoma cell lines; sensitive if IC50 less than 500 nM.
Description: as §1
The most sensitive of those tested were non-Hodgkin's Lymphoma (NHL) cell lines. […] NHL represents a diverse group of hematopoietic malignancies that vary in severity, with subtypes ranging from slow growing to aggressive. Subtypes of NHL include diffuse large B cell lymphoma (DLBCL), Burkitt's lymphoma, mantle lymphoma, and follicular B cell lymphoma. DLBCL is divided into two subtypes, GCB and ABC, based on gene expression and cell of origin. The GCB are germinal center B cell type, arising from normal germinal center B cells, and the ABC are activated B cell type, arising from post-germinal center B cells in the process of differentiating into plasma cells.

Series [3] has as its system representative cancer cell line. Put plainly: Vacuolization of live cells. In kind it is cell-based. As to conditions: 500 nM, 24 h.
For series [4] the following is noted: active Crohn's disease, placebo-controlled (Sands et al. 2010); cited from earlier work.
In the next series the test system is H4 neuroglioma cell line. Put plainly: Cyto-ID Autophagy detection. The format is cell-based, Human. Particulars: 72 hours of treatment. The source says: Autophagy was quantified using the Cyto-ID Autophagy detection kit (Enzo) according to manufacturer's directions.
The next series deals with HELA. Particulars: HELA (WO 2006/128129); cited from earlier work.
For series [5], the system named is diffuse large B cell lymphoma cells. Put plainly: Apotox-Glo Triplex assay (viability, apoptosis, necrosis). Particulars: 48 hours. The format is cell-based. As to the method:
Apoptosis was quantified and distinguished from necrosis using the Apotox-Glo Triplex assay (Promega, Inc.) according to the manufacturer's instructions. In this assay, viability, apoptosis, and necrosis are assessed simultaneously using three different markers (GF-AFC, Caspase-3/7, and bis-AAF-R110, respectively).

The test system of a further series is U937. Particulars: U937 (WO 2006/128129); cited from earlier work.

The structures appear in SMILES notation.

By IC20 is commonly meant the concentration at which the effect reaches the 20% level. Regarding `Cc1cccc(/C=N/Nc2cc(N3CCOCC3)nc(OCCc3ccccn3)n2)c1` [apilimod], in the series on Normal lung fibroblasts, the apilimod-induced cytotoxicity entry is listed as “insensitive”. Moreover, the cytotoxicity result (in the series on THP-1; with Jurkat; in series [1]; in the series on HELA; in the series on U937) was “not cytotoxic” each time. Moreover, it took 10 nM to reach the 20% level in the series on SUDHL-4 cells (IC20). Moreover, the “immunomodulatory activity in patients” value with IL-12/IL-23 synthesis was “showed immunomodulatory activity”. For the same compound, in series [2], the “percentage of NHL cell lines tested that were sensitive” value was “over 50%”. Besides, the vacuolization entry in [3] was “induces vacuolization”. Moreover, the clinical efficacy result in [4] was “did not demonstrate efficacy over placebo”. The “autophagy (autophagic vacuoles)” value in the series with H4 neuroglioma cell line is “induced autophagy in a dose-dependent manner”. In addition, in series [5], the “apoptosis (Caspase-3/7 marker)” value is reported as “increased apoptosis”.
